Data set [1] concerns Ack1. In words: Ack1 autoactivation in transfected HEK293 cells (HA immunoprecipitation, pTyr immunoblot). The settings on record: HEK293 cells transfected with HA-tagged Ack1 WT/point mutants, 5 uM overnight. In general terms: A western blot detects proteins with antibodies after separation by electrophoresis.
Protocol: Immunoprecipitation with HA-beads followed by immunoblotting with pTyr (top and middle panel) or Ack1 (bottom panel) antibodies was performed.
Site directed mutagenesis was performed and HA-tagged point mutants were generated. HEK293 cells were transfected, grown in growth factor free media, followed by immunoprecipitation with HA-beads.
Data set [2] has as its system AKT. In words: Immunoblot of AKT phosphorylation in insulin/EGF-treated MCF-7 and A2780-CP cells. The settings on record: AIM-100 overnight (3 μM), insulin or EGF stimulated. The format is cell-based. On the procedure:
(§1) FIGS. 3A-3B are images of immunoblots of lysates from serum starved MCF-7 and A2780-CP cells treated (or untreated) with insulin or EGF (10 ng/ml) and AIM-100 (3 μM, overnight) that were immunoblotted with pTyr176-AKT (top panel), pSer473-AKT (2nd panel), pThr308-AKT (3rd panel), pTyr284-Ack1 (4th panel) and tubulin (bottom panel).
(§2) To assess the potential inhibition of Ack1 activity, MCF-7 (breast) and A2780-CP (Ovary) cells were treated with AIM-100 overnight. Cells were either untreated or treated with Insulin (for 30 mins) or EGF (15 min) followed by immunoblotting of lysates with pTyr284-Ack1 antibody.

Data set [3] deals with Ack1 (Homo sapiens, UniProt Q07912). The format is cell-based. The note with it: MCF-7 and A2780-CP cells, AIM-100 overnight (3 μM), insulin or EGF stimulated. As for the experimental part: as §1, §2
Data set [4] relates to pTyr176-AKT. Kind of data set: Affinity Purification coupled ELISA for pTyr176-AKT in MDA-MB-231. The format is cell-based. The note with it: MDA-MB-231 cells treated with inhibitor. As for the experimental part:
FIG. 6 is a bar graph showing Affinity Purification coupled ELISA for pTyr176-AKT detection in TNBC derived cell line MDA-MB-231. MDA-MB-231 cell lysates were incubated with streptavidin beads with AKT peptide. The AKT peptides were eluted and phosphorylation was detected using ELISA.
Towards detecting pY176-AKT in TNBC derived cell lines, MDA-MB-231 (1×10^4 cells) were lysed in reaction buffer containing phosphatase and protease inhibitors and lysates were quantitated. Biotinylated AKT peptide was incubated with streptavidin beads for 1 hours, beads were washed and the AKT peptide coated beads were incubated with cell lysates for 1 hours at room temperature. The beads were washed in PBST and the bound peptides were eluted. To elute the bound biotinylated AKT peptide from Streptavidin Beads, Streptavidin Beads were resuspended in 10 mM NaCl containing solution followed by heating the mix at 75° C. for 2-3 minutes, as described in literature (33). The eluted AKT peptides were immobilized onto streptaviding plates and presence of phospho-peptides was detected by ELISA described above in step I.
For orientation: In an ELISA, binding on a coated surface is turned into a signal by an enzyme label.

Data set [5] has as its target purified Ack1 kinase (Homo sapiens, UniProt Q07912). The settings on record: inhibitor 50 nM, Ack1 50 nM, 5 uM ATP, 1 hour.
Protocol: The peptides sequence is derived from the region that is recognized by Ack1 leading to AKT Tyr176-phosphorylation and activation (13, 15, 17). The phospho-AKT peptide was used as a positive control and as a standard for quantitation of pT176-AKT in tissue samples.
The AKT peptides were diluted to final concentration of 1 uM in phosphate buffered saline (PBS) and immobilized onto streptavidin plates (R & D systems) for 1 hour. […] After 1 hour of incubation, plates were washed in PBST and secondary antibody (HRP-conjugated anti-rabbit antibody diluted in BSA) was added. After 1 hour, plates were washed in PBST and devoped using OPD substrate (Sigma) and read at 450 nm.
Data set [6] concerns MDA-MB-231 cell line. In words: Cell growth assay (WST1). The format is cell-based. The note with it: MDA-MB-231, 72 hours, read-out: IG50 (cell growth). As for the experimental part: (§3) Experiment was performed twice with 8 replicates, a representative data set is shown.
(§4) To determine whether inhibition of the Ack1/AKT signaling pathway affects TNBC-derived cancer cell proliferation, MDA-MB-231 and MDA-MB-468 cell lines were treated with increasing concentrations of PLX-4032 or AIM-100. A cell growth assay was performed by adding solution of WST1 to 96 wells (5×10^3 cells) and incubation for 1 h. The cell viability as a function of mitochondrial activity in living cells was measured spectrophotometrically at a wavelength of 450 nm.
Background: Tetrazolium assays rely on reduction of a dye to a coloured formazan, in cell work by metabolically active cells.

In data set [7] the test system is MDA-MB-468 cell line. In words: Cell growth assay (WST1). The note with it: MDA-MB-468, 72 hours. The format is cell-based. As for the experimental part: as §3, §4
The test system of data set [8] is xenograft tumor. In words: Xenograft tumor growth. The settings on record: in vivo.

SMILES strings stand for the structures. Where two headings read alike, the source gives them in different places.

Sequence of purified Ack1 kinase (Q07912 whole entry): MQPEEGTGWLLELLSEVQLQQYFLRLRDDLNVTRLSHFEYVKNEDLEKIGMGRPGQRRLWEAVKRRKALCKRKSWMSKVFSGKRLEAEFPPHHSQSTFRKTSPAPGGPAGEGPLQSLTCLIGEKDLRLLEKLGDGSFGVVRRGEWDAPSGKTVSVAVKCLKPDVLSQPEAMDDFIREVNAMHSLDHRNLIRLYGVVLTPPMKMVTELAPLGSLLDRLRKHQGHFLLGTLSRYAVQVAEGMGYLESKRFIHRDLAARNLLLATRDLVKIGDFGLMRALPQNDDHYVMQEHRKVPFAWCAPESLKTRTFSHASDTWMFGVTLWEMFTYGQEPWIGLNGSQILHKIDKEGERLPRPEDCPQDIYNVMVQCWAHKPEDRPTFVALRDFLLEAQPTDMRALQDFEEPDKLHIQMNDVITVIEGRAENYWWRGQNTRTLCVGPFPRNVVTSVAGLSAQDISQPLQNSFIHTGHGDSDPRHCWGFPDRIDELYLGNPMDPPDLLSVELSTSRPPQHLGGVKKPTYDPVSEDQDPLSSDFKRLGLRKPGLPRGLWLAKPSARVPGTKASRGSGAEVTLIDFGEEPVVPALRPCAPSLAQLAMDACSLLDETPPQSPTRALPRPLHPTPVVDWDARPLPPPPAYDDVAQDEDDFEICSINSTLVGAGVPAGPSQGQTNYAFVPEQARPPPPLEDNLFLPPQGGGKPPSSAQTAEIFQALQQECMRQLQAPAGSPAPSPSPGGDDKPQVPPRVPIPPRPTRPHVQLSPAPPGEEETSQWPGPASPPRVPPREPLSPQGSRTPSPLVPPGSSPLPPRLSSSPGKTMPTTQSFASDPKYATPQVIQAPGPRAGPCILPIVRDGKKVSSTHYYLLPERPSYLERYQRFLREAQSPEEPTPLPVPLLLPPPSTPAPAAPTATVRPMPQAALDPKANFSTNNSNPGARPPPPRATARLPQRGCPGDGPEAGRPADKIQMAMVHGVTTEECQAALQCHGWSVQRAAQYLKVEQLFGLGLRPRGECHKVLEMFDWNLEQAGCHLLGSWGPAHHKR
Sequence of Ack1 (Homo sapiens, UniProt Q07912) (Q07912 whole entry): as above

With `c1ccc(-c2oc3ncnc(NC[C@@H]4CCCO4)c3c2-c2ccccc2)cc1` [AIM-100], the “Ack1 activation (pTyr immunoblot)” value in data set [1] is on record as “completely abrogated Ack1 activation”. Also, in data set [2], the “AKT Tyr176/Ser473 and Thr308-phosphorylations” value was “significant decrease”. Moreover, in data set [3], the “endogenous pTyr284-Ack1 levels” value is “significantly decreased”. Also, the “pTyr176-AKT levels (Affinity Purification Coupled ELISA)” value in data set [4] is given as “significant decrease”. For the same molecule, the “AKT Tyr176-phosphorylation (ELISA)” value in data set [5] is reported as “significant decrease”. Moreover, in data set [6], the IC50 was around 16 µM. Besides, the “cellular cytotoxicity (in words)” value in data set [7] was “rather resistant”. For the same molecule, the xenograft tumor growth entry in data set [8] is “suppresses”.
As for `CCCS(=O)(=O)Nc1ccc(F)c(C(=O)c2c[nH]c3ncc(-c4ccc(Cl)cc4)cc23)c1F` [PLX4032, Vemurafenib], the “Ack1 activation (pTyr immunoblot)” value in data set [1] is reported as “completely abrogated Ack1 activation”. The “pTyr176-AKT levels (Affinity Purification Coupled ELISA)” value in data set [4] is listed as “significant decrease”. Moreover, the IC50 in data set [6] (Homo sapiens) was around 13 µM; in data set [7] (Homo sapiens, read-out: IG50 (cell growth)), around 13 µM.

Values taken from patent publication US20140045883A1, “ACK1 KINASE INHIBITION TO TREAT TRIPLE NEGATIVE BREAST CANCER” (H. Lee Moffitt Cancer Center and Research Institute, Inc., priority 2012, published 2014).
